We go through two compounds from patent US7875587B2, “Peptide analogues of GIP for treatment of diabetes, insulin resistance and obesity” (UUTECH Limited, priority 2004, dated 2011).

One series deals with T1, DPP IV (Sus scrofa, UniProt P22411).
T1 construct: purchased Sigma (Poole, Dorset, UK)
Description: Degradation of GIP and analogues by DPP IV (HPLC). It is filed as in vitro ADME. As for the experimental part:
Degradation of GIP and Tyr^1-glucitol GIP by DPP IV. HPLC-purified GIP or Tyr^1-glucitol GIP were incubated at 37° C. with DPP-IV (5 mU) for various time periods in a reaction mixture made up to 500 μl with 50 mmol/l triethanolamine-HCl, pH 7.8 (final peptide concentration 1 mmol/l). Enzymatic reactions were terminated after 0, 2, 4 and 12 hours by addition of 5 μl of 10% (v/v) TFA/water. Samples were made up to a final volume of 1.0 ml with 0.12% (v/v) TFA and stored at −20° C. prior to HPLC analysis.
(§1) HPLC analysis of degraded GIP and Tyr^1-glucitol GIP. […] Using 0.1% (v/v) TFA in 70% acetonitrile/H20, the concentration of acetonitrile in the eluting solvent was raised from 0% to 31.5% over 15 min, to 38.5% over 30 minutes and from 38.5% to 70% over 5 minutes, using linear gradients. The absorbance was monitored at 206 nm and peak areas evaluated using a model 2221 LKB integrator. Samples recovered manually were concentrated using a Speed-Vac concentrator.
(§2) Electrospray ionization-mass spectrometry (ESI-MS) was carried out as described in Example 2. Degradation of GIP and novel GIP analogues by DPP IV and human plasma was carried out as described in Example 2.

A short description of series [1]: Degradation of GIP and analogues by human plasma (HPLC). The series is classed as in vitro ADME. How it is done:
Degradation of GIP and Tyr^1-glucitol GIP by human plasma. […] […] The reactions were terminated by addition of 5 μl of TFA and the final volume adjusted to 1.0 ml using 0.1% v/v TFA/water. Samples were centrifuged (13,000 g, 5 minutes) and the supernatant applied to a C-18 Sep-Pak cartridge (Millipore-Waters) which was previously primed and washed with 0.1% (v/v) TFA/water. […] The volume was adjusted to 1.0 ml with 0.12% (v/v) TFA/water prior to HPLC purification.
as §1, §2

T1 sequence (P22411 whole entry): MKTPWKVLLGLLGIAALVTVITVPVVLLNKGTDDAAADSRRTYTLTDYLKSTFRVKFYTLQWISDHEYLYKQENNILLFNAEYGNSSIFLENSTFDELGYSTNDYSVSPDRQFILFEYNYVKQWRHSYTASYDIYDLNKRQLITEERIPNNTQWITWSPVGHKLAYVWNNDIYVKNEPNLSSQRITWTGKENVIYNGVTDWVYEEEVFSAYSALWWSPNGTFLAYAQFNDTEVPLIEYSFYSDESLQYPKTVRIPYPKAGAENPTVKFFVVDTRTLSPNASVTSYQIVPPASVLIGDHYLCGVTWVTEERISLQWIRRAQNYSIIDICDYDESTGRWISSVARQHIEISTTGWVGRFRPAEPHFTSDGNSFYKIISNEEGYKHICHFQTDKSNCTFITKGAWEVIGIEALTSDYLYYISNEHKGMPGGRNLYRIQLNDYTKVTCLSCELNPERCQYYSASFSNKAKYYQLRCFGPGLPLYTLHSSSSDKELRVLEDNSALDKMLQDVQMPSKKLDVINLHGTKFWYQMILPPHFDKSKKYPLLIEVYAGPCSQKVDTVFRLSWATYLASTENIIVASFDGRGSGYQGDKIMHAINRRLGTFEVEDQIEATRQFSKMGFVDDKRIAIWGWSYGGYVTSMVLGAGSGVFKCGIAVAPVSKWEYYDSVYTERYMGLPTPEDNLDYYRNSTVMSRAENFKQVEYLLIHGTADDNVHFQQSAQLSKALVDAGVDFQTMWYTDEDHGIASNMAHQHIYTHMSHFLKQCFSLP

In the case of `CC[C@H](C)[C@H](NC(=O)[C@H](CO)NC(=O)[C@H](Cc1ccc(O)cc1)NC(=O)[C@H](CC(=O)O)NC(=O)[C@H](CO)NC(=O)[C@@H](NC(=O)[C@H](Cc1ccccc1)NC(=O)[C@@H](NC(=O)CNC(=O)[C@H](CCC(=O)O)NC(=O)[C@H](C)NC(=O)[C@H](Cc1ccc(O)cc1)NC(C)=O)[C@@H](C)O)[C@@H](C)CC)C(=O)N[C@@H](C)C(=O)N[C@@H](CCSC)C(=O)N[C@@H](CC(=O)O)C(=O)N[C@@H](CCCCN)C(=O)N[C@H](C(=O)N[C@@H](Cc1c[nH]cn1)C(=O)N[C@@H](CCC(N)=O)C(=O)N[C@@H](CCC(N)=O)C(=O)N[C@@H](CC(=O)O)C(=O)N[C@@H](Cc1ccccc1)C(=O)N[C@H](C(=O)N[C@@H](CC(N)=O)C(=O)N[C@@H](Cc1c[nH]c2ccccc12)C(=O)N[C@@H](CC(C)C)C(=O)N[C@@H](CC(C)C)C(=O)N[C@@H](C)C(=O)N[C@@H](CCC(N)=O)C(=O)N[C@@H](CCCCN)C(=O)NCC(=O)N[C@@H](CCCCN)C(=O)N[C@@H](CCCCN)C(=O)N[C@@H](CC(N)=O)C(=O)N[C@@H](CC(=O)O)C(=O)N[C@@H](Cc1c[nH]c2ccccc12)C(=O)N[C@@H](CCCCN)C(=O)N[C@@H](Cc1c[nH]cn1)C(=O)N[C@@H](CC(N)=O)C(=O)N[C@H](C(=O)N[C@H](C(=O)N[C@@H](CCC(N)=O)C(=O)O)[C@@H](C)O)[C@@H](C)CC)C(C)C)[C@@H](C)CC` [N-Acetyl-GIP], the “resistance to in vitro degradation with DPP IV relative to native GIP” value at DPP IV (Example 3, summary of Table 1) was “more resistant than native GIP”. The “% Intact peptide remaining after time (h)” value at DPP IV (incubation with DPP IV, 0 h) amounted to 100%. The fraction remaining at 2 h, 1 mmol/l on DPP IV (isolated enzyme dpp iv, pH 7.8, incubation with DPP IV, 2 h, read-out: % Intact peptide remaining after time (h)) stood at 100%. The fraction remaining at 4 h, 1 mmol/l on DPP IV (isolated enzyme dpp iv, pH 7.8, incubation with DPP IV, 4 h, read-out: % Intact peptide remaining after time (h)) was 100%. On DPP IV (isolated enzyme dpp iv, pH 7.8, incubation with DPP IV, 8 h, read-out: % Intact peptide remaining after time (h)), the share remaining at 8 h, 1 mmol/l worked out at 100%.

With “Ile-Pro-Ile [diprotin A, reference compound]”, the “effect of DPP IV inhibitor on degradation of GIP by plasma” value in series [1] is “completely inhibited degradation of the peptide by plasma”.

As a reminder, the amount remaining is what is left of the initial amount, in per cent.
